Patent publication US8470892B2, “Method of inducing neovascularization” (priority 2010, dated 2013)

Key:
complement system [1] = experiment: Activation of the complement system by PEG-8 in serum and RPE-choroid; assay type: in vivo, mice
Procedure: Activation of the complement system by PEG-8 was also studied in the RPE-choroid and in the blood. PEG-8 or saline was injected subretinally and animals were sacrificed at day 1, 3 and 5 after treatment. Total complement activation was studied in the serum. Levels of C3 split products and MAC were investigated in RPE-choroid tissue. […] PEG-8 and saline injected animals at day 3 and 5 had the same levels of total C3 (43 kDa and 23 kDA), but levels of C3 (43 kDa) were higher in PEG-8 treated animals compared to saline injected mice (FIGS. 5C, D).

Male C57BL/6 mice = experiment: CNV induction by subretinal injection of PEG-8 (FITC-dextran perfused RPE-choroid-sclera flat mounts); assay type: in vivo
Procedure: Male C57BL/6 mice (7-9 weeks old) were anesthetized with Ketamine (80 mg/kg) and Xylazine (20 mg/kg) prior to subretinal injection. One eye was decompressed with 27G needle by inserting the needle through the limbus and sclera. Microinjector UMP3 equipped with Nanofil syringe 100 μL and 33G blunt needle (Word Precision Instruments) was used for injections. The needle was inserted into the incision created by decompression. Movement of the needle was stopped when light resistance was felt by operator. Solutions (single injection of 2 μL) were injected slowly for 5 seconds in the subretinal space. All manipulations were performed under visual control using microscope. Detachment of the retina was visible through the lens. The second eyes of mice were not injected.
To investigate dose dependent effect of PEG-8 (Polyethylene glycol 400) the inventors divided the animals into 7 groups: one control group (n=3 mice) which was not treated at all, group 2 (n=3 mice) received a single subretinal injection of vehicle (2 μL of 0.9% sterile sodium chloride), and five experimental groups which were injected with different doses of PEG-8: 2.0 mg, 1.0 mg, 0.5 mg, 0.25 mg and 0.125 mg. PEG-8 was dissolved in vehicle before injection. Doses of PEG-8 were delivered to the one experimental eye in 2 μL respectively. To determine optimal dose of PEG-8, the inventors performed histological examination and investigation of flat mounted RPE-choroid-sclera complexes after perfusion of animals with FITC-dextran solution at day 14 after injection.
To investigate the time course of CNV after PEG-injection, the animals were injected with 1.0 mg of PEG-8 subretinally and 5 mice from each group were sacrificed at day 1, 3, 5, 7, 14, 21, 28, and 42 post-injection. […] CNV reached maximal size at day 5 and was present until at least day 42.
To evaluate the CNV size, the animals were perfused through their heart with 0.75 ml of phosphate-buffered saline (PBS) containing 50 mg/ml of fluorescein-labeled dextran (FITC-Dextran, 2 million average mw) before they were sacrificed. The eyes were harvested and fixed for 4 hours in 10% phosphate buffered formalin and RPE-choroid-sclera flat mounts were prepared. The RPE-choroid-sclera complexes were mounted in ProLong Antifade reagent with the sclera facing down and were examined under a ZEISS LSM 510 laser confocal microscope.
Confocal microscopy of flat mounted RPE-choroids perfused with FITC-dextran was performed and investigated with semi thin (1 μm) embedded sections at day 5 after injection when CNV was fully developed. […] After PEG-8 injection, CNV was located between two layers of RPE cells in subretinal space (FIGS. 3B, D, F). No vessels originated from retina was found (FIG. 3D). 5 μm paraffin section of control (saline) and PEG-8 injected mice at day 1 were investigated, 3 and 5 after treatment. RPE cells in control groups formed single layer of cells and endothelial cells were found within choroid (FIG. 3G). Starting from day 1 after PEG-8 treatment, zones of affected RPE cell structure were discovered with increased size, irregular shape and presence of space between neighboring RPE cells (FIG. 3H). Isolectin-IB4 positively labeled cells located between affected RPE cells were found at day 1, 3 and 5 after injection (FIGS. 3H-J). Isolectin-IB4 positive had contact with choroidal Isolectin-IB4 positive capillaries and formed vessels in subretinal tissue between existing and newly formed RPE cell layers (FIG. 3J).

VEGF = VEGF levels by ELISA in posterior part of the eyes after PEG-8; assay type: in vivo, mice
complement system [2] = experiment: Dependence of PEG-8 induced CNV on complement: depletion with Cobra Venom Factor; assay type: in vivo, mice
Procedure: To investigate dependence of PEG-8 induced CNV on complement system activation, the complement system in the mice was depleted by intraperitoneal administration of Cobra Venom Factor. Four groups of animals were used (n=5 mice in each group). Group 1 and 2 were treated intraperitoneal with 4 U of cobra venom factor as described in the inventors' previous publication for 2 days before and every day after subretinal injections. Group 3 and 4 were injected intraperitoneal with vehicle (0.9% Sodium Chloride).
The mice were then injected with subretinal PEG-8 and investigated at day 5 after treatment. […] RPE-choroids of these mice were stained for MAC by IHC and investigated flat mounts using confocal microscopy. Areas of high MAC deposition in animals treated with saline (FIG. 4B) were found but not in CVF treated group (FIG. 4C).

[3] = subretinal PEG-8, day 1, 3 and 5

Polyethylene glycol 400 [PEG-8]
MAC levels in RPE-choroid vs saline treated animals (Western blotting) (complement system [1]; all investigated time points (day 1, 3, 5)): approximately three fold higher | C3 split products levels in RPE-choroid vs saline injected mice (complement system [1]; day 1 post-injection only): three-fold increase | levels of C3 (43 kDa) vs saline injected mice (complement system [1]; day 3 and 5): higher | levels of total C3 (43 kDa and 23 kDA) vs saline (complement system [1]; day 3 and 5): same levels | alternative complement activity in mouse serum (complement system [1]; [3]): did not affect | total complement activity in mouse serum (complement system [1]; [3]): did not affect | CNV size and frequency compared between doses (Male C57BL/6 mice; 1.0 mg dose, day 14): largest size and frequency | frequency of CNV (Male C57BL/6 mice; 1.0 mg subretinal, day 14 after injection): 4.4 sites of CNV per eye | CNV present until (Male C57BL/6 mice; 1.0 mg subretinal, time course): ≥ 42 days | first signs of CNV detected (Male C57BL/6 mice; 1.0 mg subretinal, time course): 3 days | time at which CNV reached maximal size (Male C57BL/6 mice; 1.0 mg subretinal, time course): 5 days | damage of RPE-choroid after subretinal injection (Male C57BL/6 mice; compared to laser treatment or surgical procedures): much smaller | occurrence of CNV (Male C57BL/6 mice; doses 2.0, 1.0, 0.5, 0.25 and 0.125 mg subretinal, day 14): CNV in all investigated groups | VEGF in intra- and extracellular fraction of proteins from posterior part of the eyes (VEGF): increase of VEGF

CVF
total complement activity in serum vs saline injected animals (complement system [2]; 4 U CVF intraperitoneal, day 5 after subretinal PEG-8, p<0.05): significantly reduced | reduction of CNV size (area of FITC-dextran perfused vessels) (complement system [2]; CVF intraperitoneal, PEG-8 induced CNV, day 5, p<0.05): 3 fold | MAC positive fluorescence in RPE-choroid, saline treated animals compared to CVF injected mice (complement system [2]; IHC flat mounts, day 5, p<0.05): significantly higher
